Assay results taken from patent publication US7951951B2, “Bicyclic enamino(thio)carbonyl compounds” (Bayer Cropscience AG, priority 2006, dated 2011).

Columns and labels:
Format in all cases: in vivo
[1] = system: green peach aphid (Myzus persicae); assay: Myzus test; oral (MYZUPE O); settings: 100 ppm, oral (sucking at the preparation)
Protocol: Myzus Test; Oral; (MYZUPE O)
Solvent: 80 parts by weight of acetone
To produce a suitable preparation of active compound, 1 part by weight of active compound is mixed with the stated amounts of solvent and emulsifier, and the concentrate is diluted with water to the desired concentration.
Containers are populated with all stages of the green peach aphid (Myzus persicae), the treatment is by sucking at the preparation of active compound of the desired concentration.
(§1) After the desired period of time, the effect in % is determined. 100% means that all aphids have been killed; 0% means that none of the aphids have been killed.
(§2) In this test, for example, the following compounds of the Preparation Examples show good activity: see table

[2] = system: greenhouse red spider mite (Tetranychus urticae); assay: Tetranychus test, OP-resistant (TETRUR spray treatment); settings: 500 g/ha, sprayed bean leaf discs
Protocol: Tetranychus Test, OP-Resistant (TETRUR Spray Treatment)
(§3) Solvents: 78 parts by weight of acetone • • 1.5 parts by weight of dimethylformamide
(§4) Emulsifier: 0.5 part by weight of alkylaryl polyglycol ether
(§5) To produce a suitable preparation of active compound, 1 part by weight of active compound is mixed with the stated amounts of solvents and emulsifier, and the concentrate is diluted with emulsifier-containing water to the desired concentration.
Discs of bean leaves (Phaseolus vulgaris) which are infested by all stages of the greenhouse red spider mite (Tetranychus urticae) are sprayed with a preparation of active compound of the desired concentration.
After the desired period of time, the effect in % is determined. 100% means that all spider mites have been killed; 0% means that none of the spider mites have been killed.
(§6) In this test, for example, the following compounds of the Preparation Examples show good activity: see table.

[3] = system: green peach aphid (Myzus persicae); assay: Myzus test (MYZUPE spray treatment); settings: spray on infested Chinese cabbage discs; for Kill rate in % after 5 days: 500 g/ha; for pest or weed control at 500 g/ha: Myzus persicae, in Brassica rapa, 120 h, after 5 days, read-out: Kill rate in % after 5 days
Protocol: Myzus Test (MYZUPE Spray Treatment)
as §3, §4, §5
Discs of Chinese cabbage (Brassica pekinensis) which are infested by all stages of the green peach aphid (Myzus persicae) are sprayed with a preparation of active compound of the desired concentration.
as §1
On this test, for example, the following compounds of the Preparation Examples show good activity: see table

Lucilia cuprina larvae = assay: Lucilia cuprina test (LUCICU); settings: 100 ppm, treated horse meat
Protocol: Lucilia cuprina Test (LUCICU)
Solvent: dimethyl sulphoxide
To produce a suitable preparation of active compound, 1 part by weight of active compound is mixed with the stated amount of water and the concentrate is diluted with water to the desired concentration.
Containers containing horse meat treated with the preparation of active compound of the desired concentration are populated with Lucilia cuprina larvae.
After the desired period of time, the kill in % is determined. 100% means that all larvae have been killed; 0% means that none of the larvae have been killed.
as §6

[4] = system: green peach aphid (Myzus persicae); assay: Myzus persicae test, hydroponic treatment (MYZUPE sys.); settings: 20 ppm, hydroponic treatment of pea plant
Protocol: Myzus persicae Test, Hydroponic Treatment (MYZUPE sys.)
(§7) Solvent: 7 parts by weight of dimethylformamide
(§8) Emulsifier: 2 parts by weight of alkylaryl polyglycol ether
(§9) To produce a suitable preparation of active compound, 1 part by weight of active compound is mixed with the stated amounts of solvent and emulsifier, and the concentrate is diluted with emulsifier-containing water to the desired concentration.
The preparation of active compound is mixed with water. The stated concentration refers to the amount of active compound per volume unit of […] (mg/l=ppm). The treated water is filled into containers housing a pea plant (Pisum sativum) which is then infected with the green peach aphid (Myzus persicae).
(§10) After the desired period of time, the kill in % is determined. 100% means that all aphids have been killed; 0% means that none of the aphids have been killed.
as §6

[5] = system: cotton aphid (Aphis gossypii); assay: Aphis gossypii test (APHIGO), leaf dipping; settings: cotton leaves dipped
Protocol: (§11) Aphis gossypii Test (APHIGO)
Solvent: 7 parts by weight of dimethylformrnamide
as §8, §9
Cotton leaves (Gossypium hirsutum) which are heavily infested by the cotton aphid (Aphis gossypii) are treated by being dipped into the preparation of active compound of the desired concentration.
as §10, §6

[6] = system: cotton aphid (Aphis gossypii); assay: Aphis gossypii test (APHIGO), spraying; settings: 12 g/ha, cotton leaves sprayed
Protocol: as §11, §7
Emulsifier: 1 part by weight of alkylaryl polyglycol ether
as §9
Cotton leaves (Gossypium hirsutum) which are heavily infested by the cotton aphid (Aphis gossypii) are treated by spraying with the preparation of active compound at the stated concentration.
After the desired period of time, the kill in % is determined. 100% means that all animals have been killed; 0% means that none of the animals have been killed.
as §2

[7] = system: caterpillars of the armyworm (Spodoptera frugiperda); assay: Spodoptera frugiperda test (SPODFR spray treatment); settings: 500 g/ha, sprayed maize leaf discs
Protocol: Spodoptera frugiperda Test (SPODFR Spray Treatment)
as §3, §4, §5
Discs of maize leaves (Zea mays) are sprayed with a preparation of active compound of the desired concentration and, after drying, populated with caterpillars of the armyworm (Spodoptera frugiperda).
After the desired period of time, the effect in % is determined. 100% means that all caterpillars have been killed; 0% means that none of the caterpillars have been killed.
as §2

[8] = system: larvae of the mustard beetle (Phaedon cochleariae); assay: Phaedon cochleariae test (PHAECO spray treatment); settings: 500 g/ha, sprayed Chinese cabbage discs
Protocol: Phaedon cochleariae Test (PHAECO Spray Treatment)
as §3, §4, §5
After the desired period of time, the effect in % is determined. 100% means that all beetle larvae have been killed; 0% means that none of the beetle larvae have been killed.
as §2

For `CC1CC2OC(=O)C=C2N(Cc2ccc(Cl)nc2)C1` (single isomer, unassigned) [Example I-12b, 4-[(6-Chloropyridin-3-yl)methyl]-6-methyl-5,6,7,7a-tetrahydrofuro[3,2-b]-pyridin-2(4H)-on], the “Kill rate in % after 5 days” value [1] was 100%, the “Kill rate in % after 6 days” value [2] was 90% and the “Kill rate in % after 5 days” value [3] was 100%.

In the case of `O=C1C=C2C(CC(Cl)CN2Cc2ccc(Cl)nc2)O1` (single isomer, unassigned) [Example I-17b, 4-[(6-Chloropyridin-3-yl)methyl]-6-chloro-5,6,7,7a-tetrahydrofuro[3,2-b]-pyridin-2(4H)-one], the “Kill rate in % after 5 days” value [3] is reported as 90%.

For `O=C1C=C2C(CC=CCN2Cc2ccc(Cl)nc2)O1` (stereo not shown) [Example I-6, 4-[(6-Chloropyridin-3-yl)methyl]-4,5,8,8a-tetrahydro-2H-furo[3,2-b]azepin-2-one], the “Kill rate in % after 2 days” value (Lucilia cuprina larvae) was 100% and the pest or weed control at 500 g/ha [3] was 100%.

`O=C1C=C2C(CC=CN2Cc2ccc(Cl)nc2)O1` (stereo not shown) [Example I-18, 4-[(6-Chloropyridin-3-yl)methyl]-7,7a-dihydrofuro[3,2-b]pyridin-2(4H)-one] gave a pest or weed control at 500 g/ha [3] of 100%.

`O=CC1=C2C(CCCN2Cc2ccc(Cl)nc2)OC1=O` (stereo not shown) [Example I-11, 3-Formyl-4-[(6-chloropyridin-3-yl)methyl]-5,6,7,7a-tetrahydrofuro [3,2-b]-pyridin-2(4H)-one] gave a pest or weed control at 500 g/ha [3] of 100%.

With `O=C1C=C2C(CCCCN2Cc2ccc(Cl)nc2)O1` (stereo not shown) [Example I-7, 4-[(6-Chloropyridin-3-yl)methyl]-4,5,6,7,8,8a-hexahydro-2H-furo[3,2-b]-azepin-2-one] the “Kill rate in % after 6 days” value [4] was 100%, the pest or weed control at 500 g/ha [3] was 100% and the “Kill rate in % after 6 days” value ([5]; 100 ppm) was 95%.

In the case of `O=C1OC2CCCN(Cc3ccc(Cl)nc3)C2=C1Cl` (stereo not shown) [Example I-9], the “Kill rate in % after 2 days” value (Lucilia cuprina larvae) is reported as 80%, the “Kill rate in % after 6 days” value [4] is reported as 100% and the pest or weed control at 500 g/ha [3] is reported as 100%. The “Kill rate in % after 6 days” value ([5]; 100 ppm) was 90%.

In the case of `O=C1C=C2C(CCCN2Cc2ccc(Cl)nc2)O1` (stereo not shown) [Example I-2, 4-[(6-Chloropyridin-3-yl)methyl]-5,6,7,7a-tetrahydrofuro[3,2-b]pyridin-2(4H)-one], the “Kill rate in % after 7 days” value [6] is reported as 85%, the “Kill rate in % after 7 days” value [7] is reported as 100% and the “Kill rate in % after 2 days” value (Lucilia cuprina larvae) is reported as 100%. For the same molecule, the “Kill rate in % after 6 days” value [4] was 100%, the pest or weed control at 500 g/ha [3] was 100% and the “Kill rate in % after 6 days” value ([5]; 20 ppm) was 95%.

For `O=C1C=C2[C@H](CCCN2Cc2ccc(Cl)nc2)O1` [Example I-4], the pest or weed control at 500 g/ha [3] was 100% and the “Kill rate in % after 7 days” value [8] was 100%.

For `O=C1C=C2C(OCCN2Cc2ccc(Cl)nc2)O1` (stereo not shown) [Example I-1, 1-[(6-Chloropyridin-3-yl)methyl]-2,3-dihydro-1H-furo[2,3-b][1,4]oxazin-6(4aH)-one], the “Kill rate in % after 5 days” value [1] was 100% and the pest or weed control at 500 g/ha [3] was 100%.

`O=C1C=C2[C@@H](CCCN2Cc2ccc(Cl)nc2)O1` [Example I-3] was tested, and the “Kill rate in % after 7 days” value [7] was 100%, the pest or weed control at 500 g/ha [3] was 100% and the “Kill rate in % after 7 days” value [8] was 100%.

With `O=C1CC2OC(=O)C=C2N(Cc2ccc(Cl)nc2)C1` (stereo not shown) [Example I-14] the “Kill rate in % after 5 days” value [1] was 100% and the pest or weed control at 500 g/ha [3] was 100%.

`O=C1OC2COCN(Cc3ccc(Cl)nc3)C2=C1Cl` (stereo not shown) [Example I-8] showed a pest or weed control at 500 g/ha [3] of 100%.

For `CC12CCCN(Cc3ccc(Cl)nc3)C1=CC(=O)O2` (stereo not shown) [Example I-10, 4-[(6-Chloropyridin-3-yl]methyl]-7a-methyl-5,6,7,7a-tetrahydrofuro[3,2-b]-pyridin-2(4H)-one], the pest or weed control at 500 g/ha [3] was 100%.

Molecule `O=C1C=C2C(CC(F)(F)CN2Cc2ccc(Cl)nc2)O1` (stereo not shown) [Example I-15] has a pest or weed control at 500 g/ha [3] of 100%.

With `CC1CC2OC(=O)C=C2N(Cc2ccc(Cl)nc2)C1` (single isomer, unassigned) [Example I-12a, 4-[(6-Chloropyridin-3-yl)methyl]-6-methyl-5,6,7,7a-tetrahydrofuro[3,2-b]-pyridin-2(4H)-on] the “Kill rate in % after 5 days” value [1] was 100% and the pest or weed control at 500 g/ha [3] was 100%.

`O=C1C=C2C(O1)C(O)CCN2Cc1ccc(Cl)nc1` (stereo not shown) [Example I-19] showed a pest or weed control at 500 g/ha [3] of 100%.

`O=C1C=C2C(CC(Cl)CN2Cc2ccc(Cl)nc2)O1` (single isomer, unassigned) [Example I-17a, 4-[(6-Chloropyridin-3-yl)methyl]-6-chloro-5,6,7,7a-tetrahydrofuro[3,2-b]-pyridin-2(4H)-one] was tested, and the pest or weed control at 500 g/ha [3] was 100% and the “Kill rate in % after 7 days” value [8] was 100%.

In the case of `O=C1C=C2C(=CCCN2Cc2ccc(Cl)nc2)O1` [Example I-20, 4-[(6-Chloropyridin-3-yl)methyl]-5,6-dihydrofuro[3,2-b]pyridin-2(4H)-one], the pest or weed control at 500 g/ha [3] is reported as 100% and the “Kill rate in % after 7 days” value [8] is reported as 100%.
